Test results: PubChem BioAssay (NCI)
Several values for one entry are separate records, joined by “and”; a condition that tells them apart may be missing. Equal entries are not always repeated.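 1) Cells in 96-well plates. 2) Compound, 48 h, 5 concentrations. 3) Linear interpolation between surrounding doses. 4) Unreached endpoint = highest concentration. GI50 is the concentration that inhibits growth by half. TGI: total growth inhibition.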

Legend:
Experiment in all cases: growth of human tumour cells (NCI), 48 h
[1] = tested on: NCI/ADR-RES ovarian
[2] = tested on: A549 NSCLC
[3] = tested on: CAKI-1 renal
[4] = tested on: MDA-MB-231 breast
[5] = tested on: SR leukemia
[6] = tested on: HS 578T breast
[7] = tested on: SN12C renal
[8] = tested on: T-47D breast
[9] = tested on: SF-539 CNS
[10] = tested on: HOP-62 NSCLC

| Compound | GI50 [1] | TGI [1] [µM] | GI50 [2] | TGI [2] [µM] | GI50 [3] | TGI [3] [µM] | GI50 [4] | TGI [4] [µM] | GI50 [5] | TGI [5] [µM] | GI50 [6] | TGI [6] [µM] | GI50 [7] | TGI [7] [µM] | GI50 [8] [µM] | TGI [8] [µM] | GI50 [9] | TGI [9] | GI50 [10] | TGI [10] [µM] |
| --- | --- | --- | --- | --- | --- | --- | --- | --- | --- | --- | --- | --- | --- | --- | --- | --- | --- | --- | --- | --- |
| CCN1C(=O)N(c2ccccc2)C2NN=c3s/c(=C4\C(=O)N(C(C)C)c5ccccc54)c(=O)n3C21 (configuration not stated) | 0.702 µM | 3.84 | 1.43 µM | > 40.5 | 0.661 µM | 8.06 | 2.51 µM | 11.6 | 0.553 µM | > 100 | 1.06 µM | 21.8 | 1.86 µM | > 100 | 0.716 | > 100 | 0.736 µM | 2.24 µM | 0.689 µM | 18.9 |
| COc1ccccc1S(=O)(=O)Nc1ccc2c(c1)CN(C)C(=O)N2 | 29.5 µM and 33.3 µM | > 100 | 9.07 µM and 22.2 µM | > 100 | 0.994 µM and 3 µM | > 100 | 4.28 µM and 7.34 µM | > 100 | 2.4 µM and 3.49 µM | > 100 | 2.53 µM and 2.23 µM | > 100 | 11 µM and 7.5 µM | > 100 | 3.27 | > 100 | 4.68 µM and 4.87 µM | 99.2 µM and > 100 µM | 4.93 µM and 4.22 µM | > 100 |
| COc1ccc2c(c1)[n+](=O)c(C(=O)/C=C/c1cc(OC)c(OC)c(OC)c1)c(C)n2[O-] | 32.3 µM | > 100 | 34.9 µM | > 100 | 26.9 µM | > 100 | 13.5 µM | 35.2 | 58.4 µM | > 100 | 11.8 µM | 34.5 | 28.2 µM | > 100 | 22.8 | > 100 | 14.4 µM | 29.7 µM | 18.7 µM | 37.2 |
| COc1ccc(C(=O)c2cc3c(N)c(C(=O)Nc4cccc(Cl)c4C)sc3nc2C)cc1 | 0.086 µM | > 25 | 0.136 µM | > 25 | 0.0995 µM | > 25 | 0.142 µM | > 25 | 0.0613 µM | 0.511 | 0.0832 µM | > 25 | 0.155 µM | > 25 | 0.153 | > 25 | 0.0679 µM | 0.169 µM | 0.154 µM | > 25 |
| COc1ccc(-c2cc(-c3cc(OC)c(OC)c(OC)c3)c(C#N)c(N3CCOCC3)n2)cc1O | 1.85 µM | > 100 | 4.71 µM | > 100 | 0.866 µM | > 100 | 2.41 µM | > 93.3 | 1.1 µM | > 100 | 2.45 µM | > 28.3 | 4.69 µM | > 100 | 25.4 | > 100 | 2.52 µM | 12.5 µM | 33.2 µM | > 100 |
| CCCCn1sc(=O)n(Cc2ccc(CNC(=O)OCc3ccc4c(Br)cc(Br)c(O)c4n3)cc2)c1=O | 0.325 µM | > 100 | 3.76 µM | > 100 | 0.609 µM | > 100 | 0.475 µM | > 51.1 | 0.404 µM | > 100 | 0.959 µM | > 100 | 0.53 µM | > 100 | > 100 | > 100 | 0.23 µM | 0.633 µM | 0.749 µM | > 100 |
| CCc1nc(N)nc(N)c1-c1ccc(NCCc2ccccc2)c([N+](=O)[O-])c1 | – | 53.7 | – | 21.8 | – | > 71.3 | – | > 88.9 | – | 24 | – | > 75.4 | – | > 71.3 | – | > 52.8 | – | 18 µM | – | > 46.9 |
| O=[N+]([O-])c1ccc(Sc2c3ccccc3nc3ccccc23)nc1 | – | 45.7 | – | 43.7 | – | 11.8 | – | 15.4 | – | > 21.3 | – | 60.7 | – | 29.6 | – | 6.52 | – | 31.2 µM | – | 47.3 |
| CCCCCCCCCCCCOC1C(CNC(=O)C2OC3OC(C)(C)OC3C2NC(=O)CN2CCCCCC2)OC2OC(C)(C)OC21 (configuration not stated) | 4.14 µM | 15.7 | 4.46 µM | 17.8 | 13 µM | 26.8 | 9.7 µM | 23 | 2.44 µM | 4.91 | 3.79 µM | 18.5 | 9.64 µM | 24.6 | 7.78 | 22.8 | 3.54 µM | 8.58 µM | 6.48 µM | 18.1 |
| CN(CCCl)c1ccc(/C=C/C2=[N+](C)c3ccccc3C2(C)C)cc1 | 65.8 µM | > 100 | 0.9 µM | 12.5 | 17.5 µM | 43.6 | 0.579 µM | 5.59 | 0.332 µM | 12.5 | 1.53 µM | 32.1 | 0.297 µM | 1.72 | 0.706 | 10.2 | 2.11 µM | 13.8 µM | 1.07 µM | 10.9 |
| Cc1ccc(S(=O)(=O)Cc2nc(-c3ccc(C(=O)NCc4cccnc4)cc3)oc2C)cc1 | 0.623 µM | > 100 | > 21.5 µM | > 100 | 1.87 µM | > 100 | 5.78 µM | > 100 | 0.514 µM | > 100 | 7.9 µM | > 100 | < 0.01 µM | > 100 | 0.287 | > 100 | < 0.01 µM | > 35.5 µM | 15.4 µM | > 88.8 |
| Nc1nc(N)c2nc(CNc3ccc(C(=O)NC(CCCNC(=O)c4ccccc4C(=O)O)C(=O)O)cc3)cnc2n1 (configuration not stated) | 0.00273 µM | > 100 | 0.00379 µM | > 100 | 0.00224 µM | > 100 | – | > 100 | 0.000424 µM | > 100 | – | > 100 | 0.00227 µM | > 100 | – | > 100 | 0.00346 µM | > 100 µM | < 0.02 µM and 0.00449 µM and < 0.0546 µM | > 100 |
| CCCCCC/C=C\CCCCCCCCCC1=CC(=O)C=C(OC)C1=O | – | 19.1 | – | 16.3 | – | 9.65 | – | 18.4 | – | 20.2 | – | 41.7 | – | 14.4 | – | 4.86 | – | 6.74 µM | – | 14.8 |
| N[C@@H]1CCCN(c2c(/C=C3\SC(=O)NC3=O)cccc2-c2ccccc2)C1 | 17.4 µM | 40.4 | 13.6 µM | 31.8 | 15 µM | 31.7 | 7.77 µM | 23.1 | 4.64 µM | 26.2 | 14 µM | 64 | 14.4 µM | 29.5 | 11.2 | 28.8 | 8.09 µM | 22.2 µM | 11.7 µM | 25.5 |
